In publication PMC6942214 (Bioorganic & medicinal chemistry letters, 2019):

Experiments:
normal cells = conditions: at therapeutic concentration, preliminary results; cited from earlier work
p53 [1] = conditions: EU-1 ALL cells, dose- and time-dependent; cited from earlier work
EU-1 ALL = assay: WST cytotoxicity assay in EU-1 leukemia cells; format: cell-based; conditions: read-out: IC50 (μM) EU-1 ALL
MDM2 [2] = target: T1, MDM2 (Homo sapiens, UniProt Q00987); conditions: EU-1 ALL cells; cited from earlier work
MDM2 [3] = target: T1, MDM2; assay: Western blot of MDM2 in EU-1 cells; format: cell-based
p53 [4] = assay: Western blot of p53 in EU-1 cells; format: cell-based
[5] = tested on: cell lysate of EU-1 leukemia cells; assay: Prodrug activation in non-denatured EU-1 cell lysate; format: in vitro ADME
[6] = Water solubility by an HPLC method; format: physicochemical; conditions: ratio of water solubilities

T1 sequence (Q00987 whole entry): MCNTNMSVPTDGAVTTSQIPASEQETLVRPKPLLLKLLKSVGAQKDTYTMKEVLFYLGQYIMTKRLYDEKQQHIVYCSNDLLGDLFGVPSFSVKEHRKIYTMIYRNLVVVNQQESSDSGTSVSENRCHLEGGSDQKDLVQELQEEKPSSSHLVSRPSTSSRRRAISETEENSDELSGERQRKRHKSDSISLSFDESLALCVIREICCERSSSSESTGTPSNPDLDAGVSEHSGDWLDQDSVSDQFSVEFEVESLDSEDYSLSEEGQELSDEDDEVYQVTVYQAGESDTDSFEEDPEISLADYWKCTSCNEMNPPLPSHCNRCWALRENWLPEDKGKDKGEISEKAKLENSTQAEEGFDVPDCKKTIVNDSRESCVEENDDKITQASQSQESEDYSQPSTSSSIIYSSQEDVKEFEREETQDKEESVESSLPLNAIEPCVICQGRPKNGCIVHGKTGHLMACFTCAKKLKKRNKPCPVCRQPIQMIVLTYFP

In the case of `O=C(CCl)Nc1cc(O)c2c(c1)C(=O)c1cccc(O)c1C2=O` [BW-AQ-101], the “toxicity to normal cells” value (normal cells) is given as “minimal or no toxicity”, the “effect on p53” value (p53 [1]) is given as “induced activation of p53” and the IC50 (EU-1 ALL) is given as 0.83 µM. For the same compound, the “effect on MDM2” value (MDM2 [2]) was “inhibited MDM2”.
For `O=C(CCl)Nc1cc(OCCO)c2c(c1)C(=O)c1cccc(OCCO)c1C2=O` [BW-AQ-238], the “cytoplasmic MDM2 level (Western blot)” value (MDM2 [3]; 0.8 μM, 15-h time point) was “significantly down-regulated”, the “MDM2 level, time course (Western blot)” value (MDM2 [3]; 1 μM) was “Down-regulation of MDM2 could be detected after 4-h treatment” and the “p53 level (Western blot)” value (p53 [4]; 0.8 μM, 15-h time point) was “increased”. For the same compound, the “p53 level, time course (Western blot)” value (p53 [4]; 1 μM) was “elevated after 4 hours of treatment”.
For `CC(C)[C@H](N)C(=O)OCCOc1cccc2c1C(=O)c1c(OCCOC(=O)[C@@H](N)C(C)C)cc(NC(=O)CCl)cc1C2=O.Cl` [Compound 9c], the “time within which the ester bond was cleaved to give parent drug” value [5] was at most 15 min.
With `Cl.N[C@@H](Cc1ccccc1)C(=O)OCCOc1cccc2c1C(=O)c1c(OCCOC(=O)[C@@H](N)Cc3ccccc3)cc(NC(=O)CCl)cc1C2=O` [Compound 9f] the “fold greater solubility than parent drug BW-AQ-238” value [6] was “over 11000 fold”.
